Results as given in patent publication US11524945B2, “Compounds for treating ILK-mediated diseases” (The Cleveland Clinic Foundation, priority 2018, dated 2022).
pIC50, pKd: −log10 of the molar value. Entries after “also recorded” stand apart in the source; their conditions may differ. Where two headings read alike, the source gives them in different places.

Key:
MDA-MB-231 cells = assay: Proliferation of triple negative breast cancer MDA-MB-231 cells; format: cell-based
Description: (§1) Cells were seeded at 20,000 cells/ml in 12 well plates in complete media. On day 3, the compounds were added at final 2 μM and the cells were counted every 3 days. […] Cells were seeded at 10,000 cells/ml in 12 well plates in complete media. The compounds were added at final 2 μM on day 2 and the cells were counted every 2 days.

[1] = Metabolic stability in mouse liver microsomes; format: in vitro ADME; details: for Remaining Percentage (%): Mouse
[2] = Oral toxicity in normal mice; format: in vivo; details: 25 to 510 mg/kg every day for two weeks, CMC/TWEEN 80
[3] = Protein binding in rat plasma; format: in vitro ADME
CYP 2C9 = CYP 2C9 (Homo sapiens (Human), UniProt P11712); assay: CYP inhibition in human liver microsomes, 2C9; format: in vitro ADME
[4] = Protein binding in human plasma; format: in vitro ADME
MCF10a cells = assay: Proliferation of normal breast MCF10a cells; format: cell-based; details: compounds at final 2 μM, FIG. 5 panel A
Description: as §1

kinases = assay: proteomic off target analysis vs known kinase inhibitors; details: FIG. 3, against FDA-approved kinase inhibitors
Source text: Higher selectivity score means stronger off target effects.
To elucidate definitively how Csbl-1 specifically binds to ILK, we determined the crystal structure of Csbl-1/ILK complex. […] Thus our structure provides a hypothetical atomic basis for understanding why Csbl-1 binds selectively to ILK but unfavorably to EGFR (Table 1).

CYP 3A4-M = CYP 3A4-M (Homo sapiens (Human), UniProt P08684); assay: CYP inhibition in human liver microsomes, 3A4-M; format: in vitro ADME
[5] = Stability in mouse plasma; format: in vitro ADME
purified EGFR = purified EGFR (Homo sapiens (Human), UniProt P00533); assay: kinase assay using purified EGFR; format: biochemical
CYP 2C19 = CYP 2C19 (Homo sapiens (Human), UniProt P33261); assay: CYP inhibition in human liver microsomes, 2C19; format: in vitro ADME
[6] = Permeability in Caco2 cell line; format: in vitro ADME; details: human
[7] = Metabolic stability in human liver microsomes; format: in vitro ADME; details: for Remaining Percentage (%): Human
Stability in SIF = format: physicochemical
Stability in rat plasma = format: in vitro ADME
[8] = tested on: human derived patient TNBC tumor (PDX); assay: TNBC PDX mice; format: in vivo; details: 200 mg/kg orally five times/week, in olive oil; day 27; listed as Csbl-1
Description: FIG. 8, panels A-C, show the effect of Csbl-1 on TNBC PDX mice. Csbl-1 was dissolved in olive oil. Five mice with TNBC were treated orally with Csbl-1 at 200 mg/kg five times/week vs 4 control mice without the treatment.
(§2) The next step was to evaluate the effect of Csbl-1 in mice bearing TNBC tumors. Given the fact that higher ILK expression level is correlated with poor outcome and reduced survival for TNBC patients (FIG. 6) and the above TNBC cell-based data, we decided to test whether Csbl-1 would be effective in suppressing the TNBC tumors in mice. […] Xenograft TNBC tumors were generated using MDA-MB231 on 8 mice. […] when the tumors were ˜3 mm, 4 mice were fed with Csbl-1 at 100 mg/kg five times/week and the other 4 mice (control, no drug) had no Csbl-1 treatment. […] We also examined the Csbl-1 effect on the mouse models with human derived patient TNBC tumor (PDX).

[9] = tested on: Xenograft TNBC tumors (MDA-MB231); assay: TNBC xenograft model (MDA-MB231); format: in vivo, mice; details: 100 mg/kg five times/week
Description: as §2

HepG2 cells = assay: Mitochondrial toxicity in HepG2 cells; format: cell-based; details: for IC50: Homo sapiens, HepG2 cells
CYP 2C8 = CYP 2C8 (Homo sapiens (Human), UniProt P10632); assay: CYP inhibition in human liver microsomes, 2C8; format: in vitro ADME
purified recombinant ILK = purified recombinant ILK (Homo sapiens (Human), UniProt Q13418); assay: ILK binding affinity, EnSpire fluorescence intensity
[10] = Log D in 1-Octanol/PBS pH 7.4; format: physicochemical

Sequence of purified recombinant ILK (Q13418 whole entry): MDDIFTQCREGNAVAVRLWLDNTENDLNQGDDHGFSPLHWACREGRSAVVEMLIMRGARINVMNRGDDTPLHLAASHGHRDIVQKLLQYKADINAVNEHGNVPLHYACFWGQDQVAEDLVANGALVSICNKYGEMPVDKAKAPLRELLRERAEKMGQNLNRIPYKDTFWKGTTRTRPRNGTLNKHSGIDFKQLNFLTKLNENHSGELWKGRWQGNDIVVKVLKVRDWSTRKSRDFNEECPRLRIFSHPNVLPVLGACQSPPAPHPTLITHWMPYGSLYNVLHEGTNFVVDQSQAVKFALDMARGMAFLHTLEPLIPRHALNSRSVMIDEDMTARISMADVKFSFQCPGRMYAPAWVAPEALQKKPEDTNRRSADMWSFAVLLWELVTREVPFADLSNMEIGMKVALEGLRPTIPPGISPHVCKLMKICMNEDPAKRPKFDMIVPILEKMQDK
Sequence of CYP 2C8 (P10632 whole entry): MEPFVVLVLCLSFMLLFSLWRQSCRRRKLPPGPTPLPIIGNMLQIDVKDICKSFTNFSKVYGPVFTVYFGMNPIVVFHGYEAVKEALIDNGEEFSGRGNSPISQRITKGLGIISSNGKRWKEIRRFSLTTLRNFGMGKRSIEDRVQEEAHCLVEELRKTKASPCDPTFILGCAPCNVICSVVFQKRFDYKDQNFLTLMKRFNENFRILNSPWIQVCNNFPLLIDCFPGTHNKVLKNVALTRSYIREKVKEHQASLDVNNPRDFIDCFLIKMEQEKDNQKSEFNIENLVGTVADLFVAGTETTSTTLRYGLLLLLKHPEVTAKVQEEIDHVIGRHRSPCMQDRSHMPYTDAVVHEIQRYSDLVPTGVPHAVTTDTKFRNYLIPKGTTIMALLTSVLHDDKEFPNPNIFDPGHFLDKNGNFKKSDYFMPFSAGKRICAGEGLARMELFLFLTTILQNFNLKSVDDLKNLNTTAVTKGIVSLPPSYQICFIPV
Sequence of purified EGFR (P00533 25-1210): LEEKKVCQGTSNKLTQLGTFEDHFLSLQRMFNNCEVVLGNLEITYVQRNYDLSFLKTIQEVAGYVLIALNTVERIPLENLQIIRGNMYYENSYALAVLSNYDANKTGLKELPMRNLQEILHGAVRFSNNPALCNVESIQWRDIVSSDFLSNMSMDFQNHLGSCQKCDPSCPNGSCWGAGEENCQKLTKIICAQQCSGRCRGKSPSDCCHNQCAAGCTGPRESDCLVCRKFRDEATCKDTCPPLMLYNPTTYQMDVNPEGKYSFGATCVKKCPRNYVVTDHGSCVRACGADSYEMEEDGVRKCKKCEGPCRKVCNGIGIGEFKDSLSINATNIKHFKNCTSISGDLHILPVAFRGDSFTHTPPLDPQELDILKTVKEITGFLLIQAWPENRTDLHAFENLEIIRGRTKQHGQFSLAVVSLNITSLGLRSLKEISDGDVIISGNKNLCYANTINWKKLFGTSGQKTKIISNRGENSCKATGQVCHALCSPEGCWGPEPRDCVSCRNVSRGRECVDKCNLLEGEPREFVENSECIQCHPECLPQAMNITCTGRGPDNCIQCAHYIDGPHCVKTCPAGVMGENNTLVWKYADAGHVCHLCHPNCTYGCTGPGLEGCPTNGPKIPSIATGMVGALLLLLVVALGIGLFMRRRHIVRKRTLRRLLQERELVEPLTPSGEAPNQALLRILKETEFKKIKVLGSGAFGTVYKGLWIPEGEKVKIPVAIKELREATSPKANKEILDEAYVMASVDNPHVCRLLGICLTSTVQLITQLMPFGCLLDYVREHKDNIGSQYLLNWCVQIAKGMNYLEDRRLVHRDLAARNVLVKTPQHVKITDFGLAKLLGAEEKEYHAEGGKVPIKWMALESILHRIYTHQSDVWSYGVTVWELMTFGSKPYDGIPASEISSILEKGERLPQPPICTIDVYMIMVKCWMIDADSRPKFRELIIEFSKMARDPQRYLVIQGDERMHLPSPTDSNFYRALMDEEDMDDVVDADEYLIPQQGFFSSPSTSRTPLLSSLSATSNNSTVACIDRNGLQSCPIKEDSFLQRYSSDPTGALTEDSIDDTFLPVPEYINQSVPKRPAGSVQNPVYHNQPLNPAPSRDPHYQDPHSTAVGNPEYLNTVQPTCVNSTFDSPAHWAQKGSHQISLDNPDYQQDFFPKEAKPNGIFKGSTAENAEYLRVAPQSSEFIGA
Sequence of CYP 3A4-M (P08684 whole entry): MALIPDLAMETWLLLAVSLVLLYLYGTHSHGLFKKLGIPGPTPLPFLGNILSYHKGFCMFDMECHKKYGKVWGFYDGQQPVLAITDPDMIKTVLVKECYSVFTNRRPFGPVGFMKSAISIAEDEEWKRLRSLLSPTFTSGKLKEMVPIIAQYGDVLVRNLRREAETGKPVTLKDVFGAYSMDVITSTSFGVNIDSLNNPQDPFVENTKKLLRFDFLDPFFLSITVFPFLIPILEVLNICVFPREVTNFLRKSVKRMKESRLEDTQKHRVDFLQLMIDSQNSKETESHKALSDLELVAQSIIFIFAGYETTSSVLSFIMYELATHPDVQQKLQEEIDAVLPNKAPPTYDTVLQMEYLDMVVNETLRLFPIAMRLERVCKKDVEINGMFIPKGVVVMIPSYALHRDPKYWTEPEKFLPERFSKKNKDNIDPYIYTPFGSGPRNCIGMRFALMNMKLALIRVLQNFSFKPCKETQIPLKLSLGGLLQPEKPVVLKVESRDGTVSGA
Sequence of CYP 2C9 (P11712 whole entry): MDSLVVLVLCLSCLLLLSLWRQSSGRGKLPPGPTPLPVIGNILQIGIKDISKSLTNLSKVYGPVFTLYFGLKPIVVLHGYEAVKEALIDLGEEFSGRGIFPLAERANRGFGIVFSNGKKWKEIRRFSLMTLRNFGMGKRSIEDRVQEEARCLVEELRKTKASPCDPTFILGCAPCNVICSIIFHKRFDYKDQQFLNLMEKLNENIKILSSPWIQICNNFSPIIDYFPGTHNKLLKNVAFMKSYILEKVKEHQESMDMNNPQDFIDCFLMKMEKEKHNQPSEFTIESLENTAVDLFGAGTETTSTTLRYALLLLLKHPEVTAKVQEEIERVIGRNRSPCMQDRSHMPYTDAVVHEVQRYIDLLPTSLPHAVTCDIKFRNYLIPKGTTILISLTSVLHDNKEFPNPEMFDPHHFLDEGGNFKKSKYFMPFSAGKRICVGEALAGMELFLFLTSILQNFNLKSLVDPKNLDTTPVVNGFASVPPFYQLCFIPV
Sequence of CYP 2C19 (P33261 whole entry): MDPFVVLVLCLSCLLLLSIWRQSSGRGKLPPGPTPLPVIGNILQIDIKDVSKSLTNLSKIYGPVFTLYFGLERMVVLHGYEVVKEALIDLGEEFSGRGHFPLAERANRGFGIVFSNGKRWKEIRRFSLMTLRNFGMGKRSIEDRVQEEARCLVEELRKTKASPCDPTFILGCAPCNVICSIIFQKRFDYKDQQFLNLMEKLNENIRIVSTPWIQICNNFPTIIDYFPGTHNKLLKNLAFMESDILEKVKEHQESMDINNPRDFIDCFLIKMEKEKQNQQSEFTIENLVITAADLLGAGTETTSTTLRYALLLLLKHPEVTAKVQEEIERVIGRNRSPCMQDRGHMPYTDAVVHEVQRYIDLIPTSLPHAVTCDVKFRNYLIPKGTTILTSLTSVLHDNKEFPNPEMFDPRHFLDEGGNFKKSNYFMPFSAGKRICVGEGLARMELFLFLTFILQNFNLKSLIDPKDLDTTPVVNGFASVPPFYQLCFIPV

With `C#Cc1cc(Nc2ncnc3cc(OCCOC)ccc23)cc(OCCOCC)c1` [Compound 1] as the compound, how does the pIC50 (MDA-MB-231 cells; Homo sapiens, MDA-MB-231, read-out: IC50 on MDA-MB-231) read?
Its pIC50 is ~6.72.

And the “effect on proliferation of MDA-MB-231 cells” value (MDA-MB-231 cells; compounds at final 2 μM, FIG. 5 panel B)?
Its value is “substantially inhibited the proliferation”.

What about the half-life ([1]; Mouse liver microsomes) of the same compound?
Its half-life is 35.4 min.

What about the microsomal CLint ([1]; Mouse liver microsomes, read-out: CLint (μL/min/mg protein)) of the same compound?
Its microsomal CLint is 39.2 µL/min/mg.

What about the CLint scaled ([1]; Mouse liver microsomes, read-out: Scaled-up CLint) of the same compound?
Its CLint scaled is 172 mL/min/kg.

And the “Remaining Percentage (%)” value ([1]; With NADPH, 0 min)?
Its value is 100.00%.

And the “Remaining Percentage (%)” value ([1]; With NADPH, 15 min)?
The value was 72.40%.

And the “Remaining Percentage (%)” value ([1]; With NADPH, 30 min)?
Its value is 51.67%.

What about the “Remaining Percentage (%)” value ([1]; With NADPH, 45 min) of the same compound?
The value was 37.39%.

And the “Remaining Percentage (%)” value ([1]; With NADPH, 60 min)?
Its value is 32.04%.

What about the “Remaining Percentage (%)” value ([1]; Without NADPH, 0 min) of the same compound?
The value was 100.00%.

And the “Remaining Percentage (%)” value ([1]; Without NADPH, 15 min)?
The value was 93.90%.

And the “Remaining Percentage (%)” value ([1]; Without NADPH, 30 min)?
Its value is 93.90%.

And the “Remaining Percentage (%)” value ([1]; Without NADPH, 45 min)?
The value was 91.46%.

What about the “Remaining Percentage (%)” value ([1]; Without NADPH, 60 min) of the same compound?
The value was 94.51%.

What about the “toxic symptoms in normal mice” value [2] of the same compound?
Its value is “no toxic symptoms”.

And the recovery [3]?
Its recovery is 93.4%.

And the fraction unbound ([3]; read-out: % Bound (converted))?
Its fraction unbound is 0.0083.

What about the IC50 (CYP 2C9) of the same compound?
Its IC50 is 13.8 µM.

What about the recovery [4] of the same compound?
The recovery was 98.8%.

What about the fraction unbound ([4]; read-out: % Bound (converted)) of the same compound?
Its fraction unbound is 0.0303.

What about the “effect on proliferation of MCF10a cells” value (MCF10a cells) of the same compound?
Its value is “little effect”.

And the “off-target effect to kinases” value (kinases)?
The value was “minimal off-target effect”.

And the IC50 (CYP 3A4-M)?
Its IC50 is 43.8 µM.

What about the “Remaining Percentage (%)” value ([5]; 0 min) of the same compound?
Its value is 100.00%.

And the “Remaining Percentage (%)” value ([5]; 15 min)?
Its value is 96.17%.

What about the “Remaining Percentage (%)” value ([5]; 30 min) of the same compound?
Its value is 96.17%.

And the “Remaining Percentage (%)” value ([5]; 45 min)?
The value was 97.56%.

What about the “Remaining Percentage (%)” value ([5]; 60 min) of the same compound?
The value was 96.17%.

And the “Remaining Percentage (%)” value ([5]; 120 min)?
The value was 93.73%.

What about the pIC50 (purified EGFR) of the same compound?
Its pIC50 is 4.11.

And the IC50 (CYP 2C19)?
The IC50 was 10.8 µM.

What about the recovery ([6]; Caco-2, Caco2, AP-BL, read-out: Recovery (%)AP-BL) of the same compound?
Its recovery is 51%.

And the recovery ([6]; Caco-2, Caco2, BL-AP, read-out: Recovery (%)BL-AP)?
The recovery was 53.5%.

And the efflux ratio ([6]; Caco-2, Caco2)?
Its efflux ratio is 0.48.

And the Papp A→B ([6]; Caco-2, Caco2, A-B)?
Its Papp A→B is 15.4 ×10⁻⁶ cm/s.

And the Papp B→A ([6]; Caco-2, Caco2, B-A)?
The Papp B→A was 7.31 ×10⁻⁶ cm/s.

And the half-life ([7]; Human Liver Microsomes)?
The half-life was 34.8 min.

What about the microsomal CLint ([7]; Human Liver Microsomes, read-out: CLint (μL/min/mg protein)) of the same compound?
Its microsomal CLint is 39.8 µL/min/mg.

And the CLint scaled ([7]; Human Liver Microsomes, read-out: Scaled-up CLint)?
The CLint scaled was 49.9 mL/min/kg.

And the “Remaining Percentage (%)” value ([7]; With NADPH, 0 min)?
Its value is 100.00%.

And the “Remaining Percentage (%)” value ([7]; With NADPH, 15 min)?
Its value is 70.61%.

And the “Remaining Percentage (%)” value ([7]; With NADPH, 30 min)?
Its value is 51.77%.

And the “Remaining Percentage (%)” value ([7]; With NADPH, 45 min)?
The value was 38.83%.

And the “Remaining Percentage (%)” value ([7]; With NADPH, 60 min)?
The value was 30.40%.

What about the “Remaining Percentage (%)” value ([7]; Without NADPH, 0 min) of the same compound?
Its value is 100.00%.

What about the “Remaining Percentage (%)” value ([7]; Without NADPH, 15 min) of the same compound?
The value was 98.20%.

And the “Remaining Percentage (%)” value ([7]; Without NADPH, 30 min)?
The value was 92.81%.

What about the “Remaining Percentage (%)” value ([7]; Without NADPH, 45 min) of the same compound?
The value was 89.22%.

And the “Remaining Percentage (%)” value ([7]; Without NADPH, 60 min)?
Its value is 103.59%.

And the “Remaining Percentage (%)” value (Stability in SIF; 0 min)?
Its value is 100.00%.

And the “Remaining Percentage (%)” value (Stability in SIF; 30 min)?
Its value is 104.86%.

What about the “Remaining Percentage (%)” value (Stability in SIF; 60 min) of the same compound?
The value was 109.34%.

And the “Remaining Percentage (%)” value (Stability in SIF; 120 min)?
The value was 105.85%.

And the “Remaining Percentage (%)” value (Stability in SIF; 180 min)?
Its value is 108.93%.

What about the “Remaining Percentage (%)” value (Stability in SIF; 240 min) of the same compound?
Its value is 109.26%.

And the “Remaining Percentage (%)” value (Stability in rat plasma; 0 min)?
The value was 100.00%.

What about the “Remaining Percentage (%)” value (Stability in rat plasma; 15 min) of the same compound?
Its value is 92.93%.

What about the “Remaining Percentage (%)” value (Stability in rat plasma; 30 min) of the same compound?
The value was 94.35%.

What about the “Remaining Percentage (%)” value (Stability in rat plasma; 45 min) of the same compound?
The value was 93.29%.

What about the “Remaining Percentage (%)” value (Stability in rat plasma; 60 min) of the same compound?
The value was 94.70%.

What about the “Remaining Percentage (%)” value (Stability in rat plasma; 120 min) of the same compound?
Its value is 91.52%.

And the “TNBC tumor growth in PDX mice” value [8]?
The value was “effectively inhibited TNBC tumor growth; also recorded: significantly reduced”.

What about the “weight difference vs control mice” value [9] of the same compound?
The value was “no significant weight difference”.

And the IC50 (HepG2 cells; Galactose, read-out: IC50 (μM)_Galactose)?
The IC50 was > 150 µM.

And the IC50 (HepG2 cells; Glucose, read-out: IC50 (μM)_Glucose)?
The IC50 was > 150 µM.

And the Compound precipitation (HepG2 cells; at 50 and 150 μM in mitochondrial toxicity assay)?
Its Compound precipitation is “* Compound precipitation observed for Compound 1 at 50 and 150 μM”.

And the IC50 (CYP 2C8)?
Its IC50 is 3.24 µM.

What about the “Binding Difference ILK (Kd)/EGFR (Kd)” value (purified recombinant ILK; EnSpire fluorescence intensity) of the same compound?
The value was 0.1565.

And the pKd (purified recombinant ILK; EnSpire fluorescence intensity, read-out: ILK - Binding affinity)?
Its pKd is 5.56.

What about the pKd (purified recombinant ILK; fluorescence-based binding assay, purified ILK, read-out: KD to ILK) of the same compound?
The pKd was ~5.56.

And the logD [10]?
Its logD is 3.61.
